Data published in patent US20250263376A1, “(E)-N-CINNAMOYLAMINOALKANOLS WITH MELANOGENESIS INHIBITORY ACTIVITY” (Uniwersytet Jagiellonski, priority 2024, published 2025).
Where “and” joins values, the source holds several entries; their conditions need not be identical. Identical values can stand only once.

Tested on: not listed separately
Assay: Lipophilicity coefficient RM0 by reversed phase thin layer chromatography
Format: physicochemical
Settings: RP-18 TLC, methanol/phosphate buffer pH=7.4
Procedure: Confirmation of the identity and purity of the obtained compounds consisted in the registration and interpretation of 1H NMR and 13C NMR spectra (the spectra were recorded using an ECZR 500 MHZ (JEOL) series FT-NMR spectrophotometer), as well as the registration and interpretation of LC-MS spectra (the spectra were recorded using Acquita UPLC system (Waters) coupled with a Waters TQD mass spectrometer). The melting point was measured using the open capillary method in the IA9300 device (Electrothermal). The lipophilicity coefficient RM0 was determined by reversed phase thin layer chromatography. In the study, aluminum plates 20×20 cm covered with modified silica gel RP-18 F254 (Merck) were used as the solid phase. The mobile phase consisted of solutions of methanol and 100 mM phosphate buffer (pH=7.4), characterized by a variable methanol content ranging from 95 to 65% (v/v). The tested compounds were dissolved in methanol to obtain solutions with a concentration of 1 mg/mL. Then, […] of the solutions prepared in this way were transferred to the starting line on aluminum plates, which were then placed in chromatographic chambers previously saturated with mobile phase vapors for at least 1 hour. All activities, including the development of chromatograms, were carried out at room temperature. After developing the chromatograms to approximately 1-2 cm from the end of the plate, the plates were dried and then the distance traveled by the tested compounds was visualized under UV light (λ=254 nm). The experiment was performed in duplicate for the specified conditions. For all samples, Rf was calculated according to the formula Rf=a/b, where a—the distance traveled by the tested compound, b—the distance traveled by the mobile phase. Then, the RM parameter was calculated for all samples according to the formula RM=log (1/Rf−1), obtaining a linear relationship between the RM values and the methanol concentration in the mobile phase. The log P coefficient was also calculated using the following computer programs: ACD/ChemSketch 2020.1.2 and ChemDraw 20.0.0.41.

In order of rising RM0:
1. Cc1ccc(/C=C/C(=O)NCCCO)cc1 [H-410/21, (2E)-N-(3-hydroxypropyl)-3-(4-methylphenyl)prop-2-enamide]  2.04
2. O=C(/C=C/c1ccc(Cl)cc1)NCCCCO [H-331/21, (2E)-3-(4-chlorophenyl)-N-(4-hydroxybutyl)prop-2-enamide]  2.14
3. CCC(CO)NC(=O)/C=C/c1ccc(C)cc1 (stereo not drawn) [H-409/21, (2E)-N-(1-hydroxybutan-2-yl)-3-(4-methylphenyl)prop-2-enamide]  2.49
4. O=C(/C=C/c1ccc(Cl)cc1Cl)NCCCCO [H-298/20, (2E)-3-(2,4-dichlorophenyl)-N-(4-hydroxybutyl)prop-2-enamide]  2.78
5. O=C(/C=C/c1ccc(Cl)cc1Cl)N1CCC(O)CC1 [H-310/20, (2E)-3-(2,4-dichlorophenyl)-1-(4-hydroxypiperidin-1-yl)prop-2-en-1-one]  2.80
6. O=C(/C=C/c1ccc(Cl)cc1Cl)NCCCCCO [H-297/20, (2E)-3-(2,4-dichlorophenyl)-N-(5-hydroxypentyl)prop-2-enamide]  3.08
7. CCC(O)CNC(=O)/C=C/c1ccc(Cl)cc1Cl (stereo not drawn) [H-320/21, (2E)-3-(2,4-dichlorophenyl)-N-(2-hydroxybutyl)prop-2-enamide]  3.08

Target: T1, tyrosinase from mushroom (Agaricus bisporus, UniProt C7FF04)
T1 sequence (C7FF04 2-392): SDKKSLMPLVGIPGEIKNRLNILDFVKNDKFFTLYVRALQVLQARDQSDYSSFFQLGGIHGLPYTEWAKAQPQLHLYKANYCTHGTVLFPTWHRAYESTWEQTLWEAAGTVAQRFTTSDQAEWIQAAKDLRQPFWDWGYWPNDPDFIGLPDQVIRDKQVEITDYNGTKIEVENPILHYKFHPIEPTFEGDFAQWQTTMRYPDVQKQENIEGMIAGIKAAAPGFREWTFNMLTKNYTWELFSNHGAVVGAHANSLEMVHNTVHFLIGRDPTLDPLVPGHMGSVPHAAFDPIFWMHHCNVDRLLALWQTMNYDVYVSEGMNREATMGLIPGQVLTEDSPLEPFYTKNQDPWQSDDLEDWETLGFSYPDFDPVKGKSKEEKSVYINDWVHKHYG
T1 sequence (G1K3P4 entry or part of it, further chain): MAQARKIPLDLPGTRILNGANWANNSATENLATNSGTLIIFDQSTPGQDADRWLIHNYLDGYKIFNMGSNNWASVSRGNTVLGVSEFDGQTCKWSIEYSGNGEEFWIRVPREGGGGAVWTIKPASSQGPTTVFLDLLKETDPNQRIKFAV
Assay: Inhibition of commercial mushroom tyrosinase, substrate L-DOPA
Format: biochemical
Settings: 500 μM; read-out: Tyrosinase inhibition with L-DOPA [%]
Procedure: (§1) Studies on the Inhibition of the Activity of Commercial Tyrosinase from Mushroom (Sigma: T3824)
(§2) The following substrates were used for the enzymatic reaction: L-tyrosine and L-3,4-dihyroxyphenylalanine (L-DOPA). Both substrates were used in independent experiments. According to the literature, the use of L-DOPA enables the assessment of tyrosinase diphenolase activity, and L-tyrosine—the tyrosinase monophenolase activity. The determinations were performed in 96-well plates, in each well there was placed: 170 μL or 127.5 μL of 50 mM phosphate buffer (pH=6.8) with tyrosinase (1U/well or 3U/well) and 10 μL of a solution of the tested compound in DMSO (the final concentration in the well was 500 μM, 250 μM or 125 μM). The negative control used 10 u L of pure solvent (DMSO). To initiate the reaction, an appropriate substrate was added: L-tyrosine (62.5 μL of solution in phosphate buffer) or L-DOPA (20 μL of solution in phosphate buffer). After a 25-minute incubation, the absorbance was measured at 475 nm using a microplate reader. The percentage of inhibition of tyrosinase activity was calculated using the formula: [(AC−AT)/[…], where AC—is the absorbance of the negative control, AT—is the absorbance of the sample containing the tested compound.

In order of rising inhibition at 500 µM:
1. CCC(O)CNC(=O)/C=C/c1ccc(Cl)cc1Cl (stereo not drawn) [H-320/21, (2E)-3-(2,4-dichlorophenyl)-N-(2-hydroxybutyl)prop-2-enamide]  5.8 ± 3.04%
2. O=C(/C=C/c1ccc(Cl)cc1Cl)N1CCC(O)CC1 [H-310/20, (2E)-3-(2,4-dichlorophenyl)-1-(4-hydroxypiperidin-1-yl)prop-2-en-1-one]  7.23 ± 0.81%
3. O=C(/C=C/c1ccc(Cl)cc1Cl)NCCCCO [H-298/20, (2E)-3-(2,4-dichlorophenyl)-N-(4-hydroxybutyl)prop-2-enamide]  11.2 ± 2.78%
4. Cc1ccc(/C=C/C(=O)NCCCO)cc1 [H-410/21, (2E)-N-(3-hydroxypropyl)-3-(4-methylphenyl)prop-2-enamide]  17 ± 5.66%
5. O=C(/C=C/c1ccc(Cl)cc1Cl)NCCCCCO [H-297/20, (2E)-3-(2,4-dichlorophenyl)-N-(5-hydroxypentyl)prop-2-enamide]  20.5 ± 2.84%
6. CCC(CO)NC(=O)/C=C/c1ccc(C)cc1 (stereo not drawn) [H-409/21, (2E)-N-(1-hydroxybutan-2-yl)-3-(4-methylphenyl)prop-2-enamide]  21.8 ± 2.31%
7. O=C(/C=C/c1ccc(Cl)cc1)NCCCCO [H-331/21, (2E)-3-(4-chlorophenyl)-N-(4-hydroxybutyl)prop-2-enamide]  64.31 ± 0.21%

Target: T1, tyrosinase from mushroom
Assay: Inhibition of commercial mushroom tyrosinase, substrate L-tyrosine
Format: biochemical
Settings: 500 μM; read-out: Tyrosinase inhibition with L-tyrosine [%]
Procedure: as §1, §2

In order of falling inhibition at 500 µM:
1. O=C(/C=C/c1ccc(Cl)cc1)NCCCCO [H-331/21, (2E)-3-(4-chlorophenyl)-N-(4-hydroxybutyl)prop-2-enamide]  82.5 ± 0.87%
2. CCC(O)CNC(=O)/C=C/c1ccc(Cl)cc1Cl (stereo not drawn) [H-320/21, (2E)-3-(2,4-dichlorophenyl)-N-(2-hydroxybutyl)prop-2-enamide]  24.4 ± 8.05%
3. O=C(/C=C/c1ccc(Cl)cc1Cl)NCCCCO [H-298/20, (2E)-3-(2,4-dichlorophenyl)-N-(4-hydroxybutyl)prop-2-enamide]  20 ± 2.96%
4. O=C(/C=C/c1ccc(Cl)cc1Cl)N1CCC(O)CC1 [H-310/20, (2E)-3-(2,4-dichlorophenyl)-1-(4-hydroxypiperidin-1-yl)prop-2-en-1-one]  19.2 ± 3.44%
5. O=C(/C=C/c1ccc(Cl)cc1Cl)NCCCCCO [H-297/20, (2E)-3-(2,4-dichlorophenyl)-N-(5-hydroxypentyl)prop-2-enamide]  19.1 ± 2.53%
6. CCC(CO)NC(=O)/C=C/c1ccc(C)cc1 (stereo not drawn) [H-409/21, (2E)-N-(1-hydroxybutan-2-yl)-3-(4-methylphenyl)prop-2-enamide]  15.3 ± 8.27%
7. Cc1ccc(/C=C/C(=O)NCCCO)cc1 [H-410/21, (2E)-N-(3-hydroxypropyl)-3-(4-methylphenyl)prop-2-enamide]  0.51 ± 5.4%

Tested on: B16-F10 murine melanoma cell line
Assay: Cytotoxicity (MTT) in B16-F10 murine melanoma cells
Format: cell-based
Settings: 12.5 μM, 48 h
Procedure: Cytotoxicity Assessment in the B16-F10 Murine Melanoma Cell Line (ATTC CRL-6745)—Preliminary Safety Assessment for Subsequent Studies
In order to determine safe doses of compounds for testing the inhibition of melanogenesis in a murine melanoma cell line, cytotoxicity tests were performed. Cytotoxicity was determined by the colorimetric method using MTT ([3-(4,5-dimethyl-2-thiazolyl)-2,5-diphenyl-2H-tetrazolium bromide, Sigma M5655). For this purpose, cells were transferred to 96-well plates in an amount of 5000/well. After 24 h of culture in an incubator in F10-Ham medium with 1% FBS, the tested compounds at various concentrations were added to the wells together with fresh medium. DMSO was added to the medium in a negative control. The MTT test was performed after further culture for 48 h. Then the medium was removed and the formed formazan crystals were dissolved in DMSO. The absorbance was measured at 570 nm in a plate reader and the result was compared to the control (DMSO), which was 100%. The percentage of viability was calculated using the formula: [AT/AC*100], where AT is the absorbance of the test sample, AC—absorbance of the control sample.

For `O=C(/C=C/c1ccc(Cl)cc1)NCCCCO` [H-331/21, (2E)-3-(4-chlorophenyl)-N-(4-hydroxybutyl)prop-2-enamide], the “Cytotoxicity study in B16F10 cells, % viability” value (from here on “Cytotoxicity study … % viability”) was 49.0%.

Same assay, conditions: 25 μM, 48 h

For `O=C(/C=C/c1ccc(Cl)cc1)NCCCCO` [H-331/21, (2E)-3-(4-chlorophenyl)-N-(4-hydroxybutyl)prop-2-enamide], the “Cytotoxicity study … % viability” value was 47.8%.

Same assay, conditions: 50 μM, 48 h

With `O=C(/C=C/c1ccc(Cl)cc1)NCCCCO` [H-331/21, (2E)-3-(4-chlorophenyl)-N-(4-hydroxybutyl)prop-2-enamide] the “Cytotoxicity study … % viability” value was 54.2%.

Same assay, conditions: 150 μM, 48 h

In order of falling “Cytotoxicity study … % viability” value:
1. O=C(/C=C/c1ccc(Cl)cc1Cl)NCCCCCO [H-297/20, (2E)-3-(2,4-dichlorophenyl)-N-(5-hydroxypentyl)prop-2-enamide]  102.3%
2. CCC(O)CNC(=O)/C=C/c1ccc(Cl)cc1Cl (stereo not drawn) [H-320/21, (2E)-3-(2,4-dichlorophenyl)-N-(2-hydroxybutyl)prop-2-enamide]  101.7%
3. O=C(/C=C/c1ccc(Cl)cc1Cl)N1CCC(O)CC1 [H-310/20, (2E)-3-(2,4-dichlorophenyl)-1-(4-hydroxypiperidin-1-yl)prop-2-en-1-one]  89.5%
4. Cc1ccc(/C=C/C(=O)NCCCO)cc1 [H-410/21, (2E)-N-(3-hydroxypropyl)-3-(4-methylphenyl)prop-2-enamide]  88.8%
5. CCC(CO)NC(=O)/C=C/c1ccc(C)cc1 (stereo not drawn) [H-409/21, (2E)-N-(1-hydroxybutan-2-yl)-3-(4-methylphenyl)prop-2-enamide]  83.2%
6. O=C(/C=C/c1ccc(Cl)cc1Cl)NCCCCO [H-298/20, (2E)-3-(2,4-dichlorophenyl)-N-(4-hydroxybutyl)prop-2-enamide]  46.5%
7. O=C(/C=C/c1ccc(Cl)cc1)NCCCCO [H-331/21, (2E)-3-(4-chlorophenyl)-N-(4-hydroxybutyl)prop-2-enamide]  32.7%

Same assay, conditions: 200 μM, 48 h

In order of falling “Cytotoxicity study … % viability” value:
1. O=C(/C=C/c1ccc(Cl)cc1Cl)N1CCC(O)CC1 [H-310/20, (2E)-3-(2,4-dichlorophenyl)-1-(4-hydroxypiperidin-1-yl)prop-2-en-1-one]  100.4%
2. CCC(CO)NC(=O)/C=C/c1ccc(C)cc1 (stereo not drawn) [H-409/21, (2E)-N-(1-hydroxybutan-2-yl)-3-(4-methylphenyl)prop-2-enamide]  95.3%
3. CCC(O)CNC(=O)/C=C/c1ccc(Cl)cc1Cl (stereo not drawn) [H-320/21, (2E)-3-(2,4-dichlorophenyl)-N-(2-hydroxybutyl)prop-2-enamide]  90.8%
4. Cc1ccc(/C=C/C(=O)NCCCO)cc1 [H-410/21, (2E)-N-(3-hydroxypropyl)-3-(4-methylphenyl)prop-2-enamide]  90.7%
5. O=C(/C=C/c1ccc(Cl)cc1Cl)NCCCCCO [H-297/20, (2E)-3-(2,4-dichlorophenyl)-N-(5-hydroxypentyl)prop-2-enamide]  73.6%
6. O=C(/C=C/c1ccc(Cl)cc1)NCCCCO [H-331/21, (2E)-3-(4-chlorophenyl)-N-(4-hydroxybutyl)prop-2-enamide]  51.9%
7. O=C(/C=C/c1ccc(Cl)cc1Cl)NCCCCO [H-298/20, (2E)-3-(2,4-dichlorophenyl)-N-(4-hydroxybutyl)prop-2-enamide]  40.6%

Same assay, conditions: 250 μM, 48 h

In order of falling “Cytotoxicity study … % viability” value:
1. CCC(CO)NC(=O)/C=C/c1ccc(C)cc1 (stereo not drawn) [H-409/21, (2E)-N-(1-hydroxybutan-2-yl)-3-(4-methylphenyl)prop-2-enamide]  103.4%
2. O=C(/C=C/c1ccc(Cl)cc1Cl)N1CCC(O)CC1 [H-310/20, (2E)-3-(2,4-dichlorophenyl)-1-(4-hydroxypiperidin-1-yl)prop-2-en-1-one]  93.0%
3. O=C(/C=C/c1ccc(Cl)cc1Cl)NCCCCCO [H-297/20, (2E)-3-(2,4-dichlorophenyl)-N-(5-hydroxypentyl)prop-2-enamide]  88.5%
4. Cc1ccc(/C=C/C(=O)NCCCO)cc1 [H-410/21, (2E)-N-(3-hydroxypropyl)-3-(4-methylphenyl)prop-2-enamide]  79.8%
5. O=C(/C=C/c1ccc(Cl)cc1)NCCCCO [H-331/21, (2E)-3-(4-chlorophenyl)-N-(4-hydroxybutyl)prop-2-enamide]  52.7%
6. O=C(/C=C/c1ccc(Cl)cc1Cl)NCCCCO [H-298/20, (2E)-3-(2,4-dichlorophenyl)-N-(4-hydroxybutyl)prop-2-enamide]  37.4%
7. CCC(O)CNC(=O)/C=C/c1ccc(Cl)cc1Cl (stereo not drawn) [H-320/21, (2E)-3-(2,4-dichlorophenyl)-N-(2-hydroxybutyl)prop-2-enamide]  33.9%

Tested on: S. typhimurium TA98
Assay: Ames microplate test, TA98
Format: cell-based, Salmonella typhimurium
Settings: positive control 0.5 μg/mL, + S9
Procedure: Bacteria were grown overnight in growth medium.

In the case of `Nc1ccc2cc3ccccc3cc2c1` [Compound 2-AA, 2-aminoanthracene, reference compound], the “Increase in the number of yellow wells compared to the reference level, TA98” value is reported as 24.00 and 15.03.

Tested on: S. typhimurium TA100
Assay: Ames microplate test, TA100
Format: cell-based, Salmonella typhimurium
Settings: positive control 1.25 μg/mL, + S9
Procedure: (§3) The study used the Ames microplate test (Ames MPF™ Penta 2 by Xenometrix, Allschwil, Switzerland). Growth medium, exposure medium, indicator medium, positive controls, hepatic microsomal fraction, NADP, glucose-6-phosphate, Salmonella typhimurium and Escherichia coli strains were components of the purchased experimental kit. Bacteria were grown overnight in growth medium. They were then exposed to the test compound at the appropriate concentration in exposure medium without or with the rat microsomal fraction S9 in 24-well plates for 90 min at 37° C. with shaking. Then, indicator medium was added to the wells and pipetted into 384-well plates, which were incubated for 48 hours at 37° C. without shaking. Results were assessed by counting the wells in which the medium turned yellow for each experimental condition.

For `Nc1ccc2cc3ccccc3cc2c1` [Compound 2-AA, 2-aminoanthracene, reference compound], the “Increase in the number of yellow wells compared to the reference level, TA100” value was 4.00.

Tested on: S. typhimurium TA1535
Assay: Ames microplate test, TA1535;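 further: bacteria exposed 90 min at 37 °C in exposure medium, then 48 h in indicator medium in 384-well plates, yellow (revertant) wells counted per condition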
Settings: positive control 2.5 μg/mL, + S9
Procedure: as §3

In the case of `Nc1c2ccccc2nc2ccccc12` [Compound 9-AA, reference compound], the “Increase in the number of yellow wells compared to the reference level, TA1535” value is reported as 10.25 and 15.41.
